In PubChem BioAssay (NCI):
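Compound exposure: 48 hours, 5 concentrations, 96-well plates. GI50 = concentration required for 50% inhibition of growth. TGI: concentration producing complete growth inhibition.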

How the values were obtained:
Test in all cases: growth of human tumour cells (NCI), 48 h
IGROV1 ovarian = system: IGROV1 ovarian
NCI/ADR-RES ovarian = system: NCI/ADR-RES ovarian
OVCAR-5 ovarian = system: OVCAR-5 ovarian
OVCAR-3 ovarian = system: OVCAR-3 ovarian
HOP-62 NSCLC = system: HOP-62 NSCLC
786-0 renal = system: 786-0 renal
NCI-H522 lung = system: NCI-H522 lung
OVCAR-4 ovarian = system: OVCAR-4 ovarian
U251 CNS = system: U251 CNS
K-562 leukemia = system: K-562 leukemia

Structure (SMILES): O=c1c(Oc2ccc(F)cc2F)cc2cnc(NC3CCOCC3)nc2n1C1CC1
- GI50 (IGROV1 ovarian): > 25 µM
- TGI (IGROV1 ovarian): > 25 µM
- GI50 (NCI/ADR-RES ovarian): > 25 µM
- TGI (NCI/ADR-RES ovarian): > 25 µM
- GI50 (OVCAR-5 ovarian): > 25 µM
- TGI (OVCAR-5 ovarian): > 25 µM
- GI50 (OVCAR-3 ovarian): > 25 µM
- TGI (OVCAR-3 ovarian): > 25 µM
- GI50 (HOP-62 NSCLC): > 25 µM
- TGI (HOP-62 NSCLC): > 25 µM
- GI50 (786-0 renal): > 25 µM
- TGI (786-0 renal): > 25 µM
- GI50 (NCI-H522 lung): > 25 µM
- TGI (NCI-H522 lung): > 25 µM
- GI50 (OVCAR-4 ovarian): > 25 µM
- TGI (OVCAR-4 ovarian): > 25 µM
- GI50 (U251 CNS): > 25 µM
- TGI (U251 CNS): > 25 µM
- GI50 (K-562 leukemia): > 25 µM
- TGI (K-562 leukemia): > 25 µM

Structure (SMILES): O=C1C[C@@H]2OCC=C3C[N+]4([O-])CC[C@]56c7ccccc7N1[C@H]5[C@H]2[C@H]3C[C@@H]64 (stereo not given in full)
- GI50 (IGROV1 ovarian): > 100 µM
- TGI (IGROV1 ovarian): > 100 µM
- GI50 (NCI/ADR-RES ovarian): > 100 µM
- TGI (NCI/ADR-RES ovarian): > 100 µM
- GI50 (OVCAR-5 ovarian): > 100 µM
- TGI (OVCAR-5 ovarian): > 100 µM
- GI50 (OVCAR-3 ovarian): > 100 µM
- TGI (OVCAR-3 ovarian): > 100 µM
- GI50 (HOP-62 NSCLC): > 100 µM
- TGI (HOP-62 NSCLC): > 100 µM
- GI50 (786-0 renal): > 100 µM
- TGI (786-0 renal): > 100 µM
- GI50 (NCI-H522 lung): > 100 µM
- TGI (NCI-H522 lung): > 100 µM
- GI50 (OVCAR-4 ovarian): > 100 µM
- TGI (OVCAR-4 ovarian): > 100 µM
- GI50 (U251 CNS): > 100 µM
- TGI (U251 CNS): > 100 µM
- GI50 (K-562 leukemia): > 100 µM
- TGI (K-562 leukemia): > 100 µM

Structure (SMILES): CC(=O)O[C@H]1C[C@@H]2[C@@]3(C)CC[C@H]4C[C@@]4(C)[C@@H]3CC[C@@]2(C)C2=CCC3=C(COC3=O)[C@]21C
- GI50 (IGROV1 ovarian): 26.5 µM
- TGI (IGROV1 ovarian): 78 µM
- GI50 (NCI/ADR-RES ovarian): 16.9 µM
- TGI (NCI/ADR-RES ovarian): 36.3 µM
- GI50 (OVCAR-5 ovarian): 19.3 µM
- TGI (OVCAR-5 ovarian): 39.5 µM
- GI50 (OVCAR-3 ovarian): 10.1 µM
- TGI (OVCAR-3 ovarian): 25.7 µM
- GI50 (HOP-62 NSCLC): 17.5 µM
- TGI (HOP-62 NSCLC): 36.4 µM
- GI50 (786-0 renal): 18.6 µM
- TGI (786-0 renal): 37.7 µM
- GI50 (NCI-H522 lung): 24.5 µM
- TGI (NCI-H522 lung): 84.1 µM
- GI50 (OVCAR-4 ovarian): 25 µM
- TGI (OVCAR-4 ovarian): 60.2 µM
- GI50 (U251 CNS): 17.4 µM
- TGI (U251 CNS): 36.3 µM
- GI50 (K-562 leukemia): 40.4 µM
- TGI (K-562 leukemia): > 100 µM

Structure (SMILES): O=C1NC(=O)N(S(=O)(=O)c2cc(C(=O)Nc3ccc(Cl)cc3)c(Cl)cc2S)S(=O)(=O)N1
- GI50 (IGROV1 ovarian): 24.1 µM
- TGI (IGROV1 ovarian): 51.6 µM
- GI50 (NCI/ADR-RES ovarian): 28.1 µM
- TGI (NCI/ADR-RES ovarian): 85.6 µM
- GI50 (OVCAR-5 ovarian): 19.4 µM
- TGI (OVCAR-5 ovarian): 35.3 µM
- GI50 (OVCAR-3 ovarian): 19.2 µM
- TGI (OVCAR-3 ovarian): 36.1 µM
- GI50 (HOP-62 NSCLC): 18.3 µM
- TGI (HOP-62 NSCLC): 37.4 µM
- GI50 (786-0 renal): 17.9 µM
- TGI (786-0 renal): 33.7 µM
- GI50 (NCI-H522 lung): 21.1 µM
- TGI (NCI-H522 lung): 50.6 µM
- GI50 (OVCAR-4 ovarian): 24.2 µM
- TGI (OVCAR-4 ovarian): > 100 µM
- GI50 (U251 CNS): 15.1 µM
- TGI (U251 CNS): 34.3 µM
- GI50 (K-562 leukemia): 12.3 µM
- TGI (K-562 leukemia): 34.1 µM

Structure (SMILES): Oc1c(Br)cc(Cl)cc1C(c1cc(Cl)cc(Br)c1O)C(Cl)(Cl)Cl
- GI50 (IGROV1 ovarian): 3.95 µM
- TGI (IGROV1 ovarian): 16.7 µM
- GI50 (NCI/ADR-RES ovarian): 2.48 µM
- TGI (NCI/ADR-RES ovarian): 8.66 µM
- GI50 (OVCAR-5 ovarian): 3.58 µM
- TGI (OVCAR-5 ovarian): 13 µM
- GI50 (OVCAR-3 ovarian): 3.14 µM
- TGI (OVCAR-3 ovarian): 10.1 µM
- GI50 (HOP-62 NSCLC): 3.02 µM
- TGI (HOP-62 NSCLC): 9.16 µM
- GI50 (786-0 renal): 2.96 µM
- TGI (786-0 renal): 10.3 µM
- GI50 (NCI-H522 lung): 1.86 µM
- TGI (NCI-H522 lung): 6.07 µM
- GI50 (OVCAR-4 ovarian): 2.86 µM
- TGI (OVCAR-4 ovarian): 13.1 µM
- GI50 (U251 CNS): 2.18 µM
- TGI (U251 CNS): 10.9 µM
- GI50 (K-562 leukemia): 0.832 µM
- TGI (K-562 leukemia): 16.8 µM

Structure (SMILES): O=C1[C@H](Cc2ccc(O)cc2)N2C(=O)CCN(C(=O)NCc3ccccc3)[C@H]2CN1Cc1cccc2ccccc12
- GI50 (IGROV1 ovarian): 1.42 µM
- TGI (IGROV1 ovarian): 10.5 µM
- GI50 (NCI/ADR-RES ovarian): 43.5 µM
- TGI (NCI/ADR-RES ovarian): > 100 µM
- GI50 (OVCAR-5 ovarian): 1.72 µM
- TGI (OVCAR-5 ovarian): 29.1 µM
- GI50 (OVCAR-3 ovarian): 1.71 µM
- TGI (OVCAR-3 ovarian): 8.91 µM
- GI50 (HOP-62 NSCLC): 3.22 µM
- TGI (HOP-62 NSCLC): 19.1 µM
- GI50 (786-0 renal): 3.15 µM
- TGI (786-0 renal): > 46.8 µM
- GI50 (NCI-H522 lung): 0.901 µM
- TGI (NCI-H522 lung): 12 µM
- GI50 (OVCAR-4 ovarian): 0.781 µM
- TGI (OVCAR-4 ovarian): > 49.9 µM
- GI50 (U251 CNS): 0.985 µM
- TGI (U251 CNS): 18.6 µM
- GI50 (K-562 leukemia): 2.06 µM
- TGI (K-562 leukemia): > 100 µM
